# Assay results published in US8101389B2, “Bacterial glutamine synthetases and methods of use” (Athenix Corp, priority 2006, dated 2012).
# Experiments:
# [1] = system: E. coli cells with AGS1 variant AGS1m2 (pAX3422), F81S, P185S, G218S, I303N, SEQ ID NO:6; assay: growth of E. coli on herbicide plates, ags1m2; assay type: cell-based; settings: 200 mM glufosinate
# Method: Mutants of the bacterial glutamine synthetase gene ags1 (SEQ ID NO:1) were created by error-prone mutagenesis using the GENEMORPH® Random Mutagenesis kit, and also using oligo-directed mutagenesis as known in the art. However, many methods are available for creating libraries of mutants. The resulting mutants were cloned into a pUC19 vector, electroporated into either XL-1 or DH5 alpha E. coli cells, and selected for growth on M63+ agar media containing antibiotic and 2, 10, or 20 mM glufosinate. Twenty-two clones were identified as growing on 20 mM glufosinate, and picked for further analysis.
# ags1m2 was mutagenized by error-prone mutagenesis using GENEMORPH® II Random Mutagenesis kit (Stratagene) according to manufacturer's instructions. Mutagenized PCR product was digested with Sac I and Hind III, and ligated into a pUC vector, similarly digested with Sac I and Hind III. Ligations were transformed into E. coli cells, and plated onto M63+ plates containing antibiotic, and 125 mM glufosinate. Clones growing on 125 mM glufosinate plates were retested on 200 mM glufosinate plates, and compared to similar platings of ags1m1 and ags1m2. […] The DNA sequence of the ags open reading frame in pAX3439 was sequenced, and the gene designated as ags1m16. The DNA sequence of ags1m16 is represented herein as SEQ ID NO:31, and the amino acid sequence is represented herein as SEQ ID NO:32. […]
# [2] = target: Serratia marcescens glutamine synthetase AGS1 variant AGS1m21, N160S, G167R, V214M, SEQ ID NO:42 (Serratia marcescens, UniProt A0A0F6KS08, G167R/N160S/V214M); assay: enzymatic assay, kinetics of AGS1m21; assay type: biochemical
# Description: ags1m21 (SEQ ID NO:41) encodes the AGS1m21 protein (SEQ ID NO:42). AGS1m21 is a variant of AGS1 that contains a similar amino acid change identified in other variants (V214M), as well as two novel mutations (N160S and G167R). This enzyme was expressed in E. coli, purified, and the kinetic values Km(glutamate) and Ki(glufosinate) of the variant measured by enzymatic assay.
# [3] = system: E. coli cells with AGS1 variant AGS1m18, F81S, P185S, H212T, V214S, G218S, I303N, SEQ ID NO:36; assay: growth of E. coli on glufosinate plates, ags1m18; assay type: cell-based
# Method: Clones expressing AGS1m17, AGS1m18, AGS1m19, or AGS1m20 were all found to be able to grow on plates containing 375 mM glufosinate, whereas no growth of clones expressing AGS1m16 was observed on plates containing 375 mM glufosinate.
# [4] = target: Serratia marcescens glutamine synthetase AGS1 variant AGS1(AD-), tyrosine 398 to phenylalanine, SEQ ID NO:44 (Serratia marcescens, UniProt A0A0F6KS08, Y398F); assay: enzymatic assay, kinetics of AGS1(AD-); assay type: biochemical
# Method: ags1(ad-) (SEQ ID NO:43) encoding the AGS1(AD-) protein (SEQ ID NO:44), is a variant of ags1 in which the putative adenylylation site has been removed by mutating the tyrosine at position 398 of AGS1 to a phenylalanine by site directed mutagenesis.
# The unmodified enzyme (AGS1) was compared to AGS1(AD-) and AGS1m17(AD-) by carrying out enzymatic assays on both enzymes following purification from E. coli. A glutamine synthetase enzyme from E. coli (GlnA) was also tested.
# Chain of Serratia marcescens glutamine synthetase AGS1 variant AGS1(AD-), tyrosine 398 to phenylalanine, SEQ ID NO:44 (A0A0F6KS08 whole entry Y398F): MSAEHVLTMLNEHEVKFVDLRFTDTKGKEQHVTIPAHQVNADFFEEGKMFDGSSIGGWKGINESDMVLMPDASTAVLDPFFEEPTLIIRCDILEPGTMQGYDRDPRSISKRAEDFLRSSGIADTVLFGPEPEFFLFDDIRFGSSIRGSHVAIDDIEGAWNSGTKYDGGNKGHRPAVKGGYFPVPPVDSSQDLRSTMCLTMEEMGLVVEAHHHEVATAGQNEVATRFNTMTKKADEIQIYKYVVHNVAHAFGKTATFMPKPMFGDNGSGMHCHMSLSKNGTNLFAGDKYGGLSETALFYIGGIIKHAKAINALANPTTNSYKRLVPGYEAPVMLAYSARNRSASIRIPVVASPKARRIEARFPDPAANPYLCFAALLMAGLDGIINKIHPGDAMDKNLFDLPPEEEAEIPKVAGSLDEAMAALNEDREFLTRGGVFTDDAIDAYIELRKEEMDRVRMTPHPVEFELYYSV
# Chain of Serratia marcescens glutamine synthetase AGS1 variant AGS1m21, N160S, G167R, V214M, SEQ ID NO:42 (A0A0F6KS08 whole entry N160S/G167R/V214M): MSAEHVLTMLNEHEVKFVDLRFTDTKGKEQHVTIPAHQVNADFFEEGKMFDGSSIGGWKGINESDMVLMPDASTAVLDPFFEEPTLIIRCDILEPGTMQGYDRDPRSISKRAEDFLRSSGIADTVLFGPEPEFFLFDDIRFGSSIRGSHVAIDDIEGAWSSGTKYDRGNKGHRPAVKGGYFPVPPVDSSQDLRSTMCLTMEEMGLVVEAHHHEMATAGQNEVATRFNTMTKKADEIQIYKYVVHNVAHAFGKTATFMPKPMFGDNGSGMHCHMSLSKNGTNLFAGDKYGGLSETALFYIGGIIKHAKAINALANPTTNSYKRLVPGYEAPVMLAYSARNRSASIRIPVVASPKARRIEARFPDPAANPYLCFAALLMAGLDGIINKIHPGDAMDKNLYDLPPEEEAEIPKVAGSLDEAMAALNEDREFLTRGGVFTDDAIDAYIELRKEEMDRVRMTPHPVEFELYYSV
structure (smiles),measurement,setting,value
CP(=O)(O)CCC(N)C(=O)O (centres unmarked) [glufosinate],growth on 200 mM glufosinate plates,[1],did not grow
same,Ki,[2],2000 µM
same,growth on plates containing 375 mM glufosinate,[3],able to grow
same,Ki,[4],13 µM
same,(Kcat*Ki)/Km,"[4]; Table 5, Km glutamate, Ki glufosinate",12.59
